Reference: US10864211B2, “Hydroxy isoxazole compounds useful as GPR120 agonists” (Merck Sharp & Dohme Corp., priority 2016, dated 2020)

Biological target: T1, human GPR120 (Homo sapiens, UniProt Q5NUL3)
T1 construct: expressed in transfected cells; host or cells: CHO-K1
T1 sequence (Q5NUL3 1-361): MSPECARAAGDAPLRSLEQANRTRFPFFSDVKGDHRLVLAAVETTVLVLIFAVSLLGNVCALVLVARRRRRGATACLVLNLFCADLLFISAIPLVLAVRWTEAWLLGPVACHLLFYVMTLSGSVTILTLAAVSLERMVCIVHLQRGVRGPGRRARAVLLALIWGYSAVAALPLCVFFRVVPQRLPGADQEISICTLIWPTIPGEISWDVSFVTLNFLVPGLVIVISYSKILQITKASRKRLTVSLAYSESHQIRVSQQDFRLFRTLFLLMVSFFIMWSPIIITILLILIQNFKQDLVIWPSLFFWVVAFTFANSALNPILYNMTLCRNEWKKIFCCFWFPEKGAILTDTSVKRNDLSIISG
Experiment: Human GPR120 IP1 assay (inositol phosphate turnover)
Type: cell-based
Settings: IP1 accumulation in CHO-K1 cells stably expressing the short form of human GPR120
From the text: The binding of small molecule agonists to the G-protein-coupled receptor GPR120 activates phospholipase C, and leads to the generation of inositol 1,4,5-trisphosphate (InsP3 or IP3). IP3 is subsequently de-phosphorylated to IP1, which accumulates in cells and is stable in the presence of lithium chloride.
In the present method, agonist-induced activation of the human and rat GPR120 receptor was monitored by measuring the accumulation of IP1 in CHO-K1 cells that were stably expressing the short form of human GPR120 (Accession #NM_001195755) or HEK293 cells stably expressing rat GPR120 (Accession #NM_001047088). Following agonist addition, GPR120 activation and subsequent accumulation of IP1 was measured using a homogeneous Time Resolved Fluorescence-based ELISA commercially available from CisBio (IP-one ELISA Kit). The IP-One ELISA was a competitive immunoassay which uses IP1 labeled with […] and a terbium cryptate-labeled anti-IP1 monoclonal antibody. […] The signal loss was then back calculated to IP1 concentration using an IP1 standard curve. Determination of IP1 concentration was a direct measure of GPR120 activation and was used to determine compound potency (EC50).
Human GPR120 stable cell-lines were generated in CHO cells. The expression plasmids were transfected using lipofectamine (Life Technologies) following manufacturer's instructions. Stable cell-lines were generated following drug selection and single cell cloning. Rat GPR120 stable cell-lines were generated in HEK cells using the Jump-In™ cell engineering platform (Life Technologies) following manufacturer's instructions. Stable cell-lines were generated following drug selection and single cell cloning.
The assay was performed in 384-well format. CHO cells stably expressing human GPR120 were plated at 20,000 cells per well in growth medium (DMEM/F12, 10% fetal calf serum). HEK293 cells stably expressing rat GPR120 were plated at […] per well in growth medium (DMEM, 10% fetal calf serum). Cell plates were then incubated 16 hours at 37 degrees in a 5% CO2 incubator. Measurement of Inositol Phosphate Turnover (IP1) was performed using the CisBio IP-One kit (Part number 62IPAPEB). After the 16 hour incubation, the growth media was removed by centrifugation using the BlueWasher (AusWasher GUI Ver. v1.0.1.8) Protocol #21-“Light Dry” and 10 μl of stimulation buffer (prepared as described in the kit) was added to each well. In a separate plate, compounds were diluted in DMSO (200-fold over the final concentration in the assay well) and 50 nl was acoustically transferred to the appropriate well in the assay cell plate. The plates were then incubated for 60 minutes at 37 degrees in a 5% CO2 incubator. 10 μl of detection buffer (also prepared as described in the IP-One kit) was added to each well and the plates were incubated at room temperature for 60 minutes in the dark. The plates were then read in a Perkin ElmerEnVision or equivalent reader able to measure FRET. Fluorescent ratio of emission at 665 and 620 nm was then converted to the IP1 concentration by back calculating from an IP1 standard curve prepared at the time of the assay. The data was normalized to % activity using a reference compound, and the EC50 values were determined using a standard 4-parameter fit.

Structure (SMILES) | EC50 [nM]
Oc1cc(-c2cnc(O[C@H]3C[C@@H](c4ccc(Br)cc4)C3)cn2)on1 [Example 7, ammonium 5-(5-{[cis-3-(4-bromophenyl)cyclobutyl]oxy}pyrazin-2-yl)isoxazol-3-olate] | 11
CC1[C@@H](Oc2cnc(-c3cc(O)no3)cn2)C[C@H]1c1ccccc1 (stereo partly drawn) [Example 92, 5-(5-{[(1S,3R)-2-methyl-3-phenylcyclobutyl]oxy}pyrazin-2-yl)isoxazol-3-ol] | 17
Oc1cc(-c2ccc(O[C@H]3C[C@](F)(c4ccnc(OC5CC5)c4)C3)nc2)on1 [Example 90] | 22
Oc1cc(-c2cnc(O[C@H]3C[C@@H](c4ccc(-c5cc(F)ccn5)cc4)C3)cn2)on1 [Example 17, ammonium 5-[5-({cis-3-[4-(4-fluoropyridin-2-yl)phenyl]cyclobutyl}oxy)pyrazin-2-yl]isoxazol-3-olate] | 86
Oc1cc(-c2cnc(O[C@H]3C[C@@H](c4ccc(F)c(C(F)F)c4)C3)cn2)on1 [Example 45, 5-[5-({cis-3-[3-(difluoromethyl)-4-fluorophenyl]cyclobutyl}oxy)pyrazin-2-yl]isoxazol-3-ol] | 24
N#Cc1cccc(COC2CC(Oc3ccc(-c4cc(O)no4)cn3)C2)c1 (mixture of isomers) [Example 73, 3-{[(cis-3-{[5-(3-hydroxyisoxazol-5-yl)pyridin-2-yl]oxy}cyclobutyl)oxy]methyl}benzonitrile (mixture of isomers predominantly cis)] | 166
Cc1cc(O[C@H]2C[C@@H](Oc3cnc(-c4cc(O)no4)cn3)C2)ccc1F [Example 71, 5-(5-{[cis-3-(4-fluoro-3-methylphenoxy)cyclobutyl]oxy}pyrazin-2-yl)isoxazol-3-ol] | 38
CCOc1ccc([C@H]2C[C@@H](Oc3ccc(-c4cc(O)no4)cn3)C2)cn1 [Example 22, 2-ethoxy-5-(cis-3-{[5-(3-hydroxyisoxazol-5-yl)pyridin-2-yl]oxy}cyclobutyl)-pyridinium chloride] | 92
Cc1ccc([C@H]2C[C@@H](Oc3cnc(-c4cc(O)no4)cn3)C2)cc1F [Example 57, 5-(5-{[cis-3-(3-fluoro-4-methylphenyl)cyclobutyl]oxy}pyrazin-2-yl)isoxazol-3-ol] | 23
Cc1cc([C@H]2C[C@@H](Oc3cnc(-c4cc(O)no4)cn3)C2)ccc1OC(F)(F)F [Example 44, 5-[5-({cis-3-[3-methyl-4-(trifluoromethoxy)phenyl]cyclobutyl}oxy)pyrazin-2-yl]isoxazol-3-ol] | 60
Oc1cc(-c2cnc(O[C@H]3C[C@@H](c4cc(F)c(Cl)c(F)c4)C3)cn2)on1 [Example 52, 5-(5-{[cis-3-(4-chloro-3,5-di-fluorophenyl)cyclobutyl]oxy}pyrazin-2-yl)isoxazol-3-ol] | 28
Oc1cc(-c2cnc(O[C@H]3C[C@@H](c4ccc(-c5ccc(C(F)(F)F)nc5)cc4)C3)cn2)on1 [Example 18, 5-{5-[(cis-3-{4-[6-(trifluoromethyl)pyridin-3-yl]phenyl}cyclobutyl)oxy]pyrazin-2-yl}isoxazol-3-ol] | 134
Oc1cc(-c2cnc(O[C@H]3C[C@@H](c4ccc(OC(F)(F)F)cn4)C3)cn2)on1 [Example 26, 5-[5-({cis-3-[5-(trifluoromethoxy)pyridin-2-yl]cyclobutyl}oxy)pyrazin-2-yl]isoxazol-3-ol] | 86
Oc1cc(-c2cnc(O[C@H]3C[C@@H](COc4ccccc4F)C3)cn2)on1 [Example 85, sodium 5-[5-({cis-3-[(2-fluorophenoxy)methyl]cyclobutyl}oxy)pyrazin-2-yl]isoxazol-3-olate] | 25
CCOc1cc([C@H]2C[C@H](Oc3cnc(-c4cc(O)no4)cn3)C2)ccn1 [Example 27, sodium 5-(5-{[trans-3-(2-ethoxypyridin-4-yl)cyclobutyl]oxy}pyrazin-2-yl)isoxazol-3-olate] | 177
Oc1cc(-c2cnc(O[C@H]3C[C@@H](c4ccc(C5CC5)cc4)C3)cn2)on1 [Example 20, ammonium 5-(5-{[cis-3-(4-cyclopropylphenyl)cyclobutyl]oxy}pyrazin-2-yl)isoxazol-3-olate] | 42
